Test results as given in patent publication US8906925B2, “Pyrido[4,3-B]indoles containing rigid moieties” (Medivation Technologies, Inc., priority 2008, dated 2014).

What was measured:
Long-Evans rats = test: 5-choice serial reaction time task (5CSRTT); assay type: in vivo, rat; details: 0.1, 0.3 and 1.0 mg/kg p.o.
From the text: Attention and impulsivity are characteristic of several disease states. The continuous performance test (CPT), used in humans, is capable of detecting attention deficts in a number of disorders, including attention deficit hyperactivity disorder, schizophrenia and mild cognitive impairment. The pre-clinical analogue of the CPT is the 5-choice serial reaction time task (5CSRTT). In this operant-based test, rats are required to be attentive and withhold responding while they monitor 5 apertures for the appearance of a brief stimulus light in one of the apertures. The brief illumination of the stimulus light in the 5CSRTT is analogous to the appearance of the “correct” letters in the CPT in humans. Upon observing the stimulus light, the rat must nose-poke in the corresponding aperture to receive a food reward. The 5CSRTT allows the measurement of similar behavioral responses as the CPT, including accuracy, speed of responding, impulsive and compulsive responding.
Thirteen male Long-Evans rats (275-300 g) were obtained from Harlan Laboratories, Indianapolis, Ind. At the time of testing for the current study, the rats were approximately 16-18 months old. Upon arrival, the rats were assigned unique identification numbers (tail marked). […]

[1] = target: T1, human recombinant serotonin 5-HT1B receptor (Homo sapiens, UniProt P28222); test: 5-HT1B radioligand binding competition assay ([3H]5-CT, CHO-K1 membranes); details: 5 μM, in duplicate, average
T1 construct: expressed in transfected cells; host or cells: CHO-K1 cell line, membrane extracts
T1 sequence (P28222 whole entry): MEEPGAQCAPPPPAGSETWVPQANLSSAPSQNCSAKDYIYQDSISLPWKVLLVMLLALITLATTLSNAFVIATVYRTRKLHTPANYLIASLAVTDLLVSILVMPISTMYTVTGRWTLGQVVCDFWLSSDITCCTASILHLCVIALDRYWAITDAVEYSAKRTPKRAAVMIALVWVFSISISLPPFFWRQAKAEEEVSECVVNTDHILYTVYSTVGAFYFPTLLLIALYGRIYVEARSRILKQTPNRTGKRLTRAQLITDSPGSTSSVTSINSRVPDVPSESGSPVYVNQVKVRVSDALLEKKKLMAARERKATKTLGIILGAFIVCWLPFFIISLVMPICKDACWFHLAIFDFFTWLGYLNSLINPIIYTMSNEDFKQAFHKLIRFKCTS
Experimental: To determine the binding activity at the human recombinant serotonin 5-HT1B receptor of compounds of the invention, CHO-K1 cell line expressing the human 5-HT1B recombinant receptor was amplified to prepare membranes used for the radioligand binding assay throughout the study. Radioligand binding competition on 5-HT1B was performed by adding successively in the wells of a 96 well plate (Master Block, Greiner, 786201). […] The plate was incubated 60 min at 25° C. in a water bath and then filtered over GF/B filters (Perkin Elmer, 6005177, presoaked in 0.5% PE1 for 2 h at room temperature) with a Filtration unit (Perkin Elmer). The filters were washed 3× with 0.5 mL of ice-cold washing buffer (50 mM Tris pH 7.4). 50 μL Microscint 20 (Packard) was added and the plate was incubated 15 min on an orbital shaker and then counted with a TopCount™ for 1 min/well.
The reference value thus obtained for the test was compared to a historical value obtained from the same receptor and used to validate the experimental session. […] For replicate determinations, the maximum variability tolerated in the test was of +/−20% around the average of the replicates.
Compounds were tested for binding activity in the radioligand binding competition assay on human 5-HT1B receptor, at one concentration […], in duplicate. Dose-response data from test compounds were analyzed with XLfit (IDBS) software using nonlinear regression applied to a sigmoidal dose-response model.
Dose-response data was analyzed with XLfit (IDBS) software using non-linear regression applied to a sigmoidal dose-response model.

histamine receptor H1 = histamine receptor H1 (Homo sapiens, UniProt P35367); test: Inhibition of binding of a ligand (Pyrilamine) to histamine receptor H1; details: as compared to the unsubstituted vinyl counterpart (106 vs compound 415; 85 vs compound 95)
Sequence of histamine receptor H1 (P35367 whole entry): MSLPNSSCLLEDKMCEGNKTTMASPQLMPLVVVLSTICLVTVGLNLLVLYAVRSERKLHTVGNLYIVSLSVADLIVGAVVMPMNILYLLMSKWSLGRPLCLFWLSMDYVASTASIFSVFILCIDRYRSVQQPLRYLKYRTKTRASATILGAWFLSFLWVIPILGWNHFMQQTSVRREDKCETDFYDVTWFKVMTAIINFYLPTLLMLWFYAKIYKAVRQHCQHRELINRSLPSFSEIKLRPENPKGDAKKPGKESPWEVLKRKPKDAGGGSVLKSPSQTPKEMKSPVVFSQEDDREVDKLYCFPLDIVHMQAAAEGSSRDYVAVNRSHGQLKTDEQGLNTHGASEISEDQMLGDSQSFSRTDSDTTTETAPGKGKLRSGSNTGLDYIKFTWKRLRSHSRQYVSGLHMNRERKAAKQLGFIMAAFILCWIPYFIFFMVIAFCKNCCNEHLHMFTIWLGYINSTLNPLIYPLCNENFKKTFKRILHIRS
Experimental: The number and extent of undesirable side effects increases with increasing affinity for the H1 receptor Thus, in one aspect, compounds of the formulae herein display reduced, low or no affinity to histamine receptor H1. […] Inhibition of binding of a ligand to H1 for all variations detailed herein is determined by a suitable assay known in the art such as the assay described herein. […] In one variation, compounds of the formulae herein inhibit binding of a ligand to H1 by between about 50% to about 80%. […] In one variation, compounds of the formulae herein inhibit binding of Pyrilamine to H1 as determined in the assay described herein. In a further variation, percent inhibition of binding to H1 is measured by assays detailed herein.
The binding properties of compounds disclosed herein to a panel of aminergic G protein-coupled receptors including adrenergic receptors, dopamine receptors, serotonin receptors, histamine receptors and an imidazoline receptor may be determined. Binding properties may be assessed by methods known in the art, such as competitive binding assays. In one variation, compounds are assessed by the binding assays detailed herein. […]
In one aspect, DDT compounds display low affinity to histamine receptor H1. […] Inhibition of binding of a ligand to H1 for all variations detailed herein is determined by a suitable assay known in the art such as the assay described herein. […]

C/C(=C\n1c2c(c3cc(Cl)ccc31)CN(C)CC2)c1ccncc1 [Compound 90, (E)-8-chloro-2,3,4,5-tetrahydro-2-methyl-5-(2-(pyridin-4-yl)prop-1-enyl)-1H-pyrido[4,3-b]indole]
impulsivity-like and perserverative-like behavior (Long-Evans rats): reduces

COc1ccc(C(C)(O)Cn2c3c(c4cc(C)ccc42)CN(C)CC3)cc1 (stereo not drawn) [Compound 174, 1-(2,8-dimethyl-3,4-dihydro-1H-pyrido[4,3-b]indol-5(2H)-yl)-2-(4-methoxyphenyl)propan-2-ol]
5-HT1B (5 μM) % Binding relative to bound radioligand [1]: 16%

C/C(=C\n1c2c(c3cc(Cl)ccc31)CN(C)CC2)c1ccccc1 [compound 106, (E)-8-chloro-2,3,4,5-tetrahydro-2-methyl-5-(2-phenylprop-1-enyl)-1H-pyrido[4,3-b]indole]
binding affinity to H1 (histamine receptor H1): lower binding affinity to H1
